We go through six molecules from patent publication US8933228B2, “Respiratory formulations and compounds for use therein” (Respivert, Ltd., priority 2010, dated 2015).

As usually defined, the pIC50 is −log10 of the IC50, conventionally taken in molar units. One may read the inhibition as the drop in the measured response relative to a control, in per cent.

For data set [1], the system named is IL-8 release in d-U937 cells. Put plainly: LPS-induced IL-8 release in d-U937 cells. As to conditions: Homo sapiens, read-out: d-U937 (LPS) IL-8 IC50. It is filed as cell-based. The protocol:
(§1) U937 cells, a human monocytic cell line, were differentiated to macrophage-type cells by incubation with phorbol myristate acetate (PMA; 100 ng/mL) for 48 to 72 hr, whereupon the cells become adherent. […] Coli: O111:B4, Sigma) for 4 hr. The supernatant was collected for determination of TNFα and IL-8 concentrations by sandwich ELISA (Duo-set, R&D systems). […] The relative 50% effective concentration (REC50) was determined from the resultant concentration-response curve. The inhibition of IL-8 production was calculated at each concentration of test compound by comparison with vehicle control.

The target in another data set is p38 MAPK alpha (MAPK14) (Homo sapiens (Human), UniProt Q16539). Kind of data set: Enzyme inhibition assay (FRET, Z-LYTE), p38 MAPK alpha via MAPKAP-K2 activation. It is filed as biochemical. As to conditions: read-out: Enzyme Profile: IC50 Values p38α. The protocol: (§2) The enzyme inhibitory activity of test compounds was determined by fluorescence resonance energy transfer (FRET) using synthetic peptides labelled with both donor and acceptor fluorophores (Z-LYTE, Invitrogen). Recombinant, phosphorylated p38 MAPK γ (MAPK12:Millipore) was diluted in HEPES buffer, mixed with compound at the desired final concentrations and incubated for 2 hr at RT. The FRET peptide (2 μM) and ATP (100 μM) were next added to the enzyme/compound mixture and incubated for 1 hr. Development reagent (protease) was added for 1 hr prior to detection in a fluorescence microplate reader. The site-specific protease only cleaves non-phosphorylated peptide and eliminates the FRET signal. Phosphorylation levels of each reaction were calculated using the ratio of coumarin emission (donor) over fluorescein emission (acceptor) with high ratios indicating high phosphorylation levels and low ratios indicating low phosphorylation levels.
For p38 MAPK alpha (MAPK14: Invitrogen), enzyme activity was evaluated indirectly by determining activation/phosphorylation of the down-stream molecule, MAPKAP-K2. The p38 MAPK a protein was mixed with compound for 2 hr at RT. […] Development reagent was then added and the mixture incubated for 1 hr before detection by fluorescence completed the assay protocol.
The enzyme inhibitory activity of compound was determined by fluorescence resonance energy transfer (FRET) using synthetic peptides labelled with both donor and acceptor fluorophores (Z′-LYTE, Invitrogen).

Data set [2] concerns Differentiated U937 cells. Put plainly: MTT assay: cell viability. As to conditions: for d-U937 MTT Assay 4 h: 5% FCS; for d-U937 MTT Assay 24 h: 10% FCS. It counts as cell-based, human. The protocol: Differentiated U937 cells were pre-incubated with each test compound under two protocols: the first for 4 hr in 5% FCS and the second in 10% FCS for 24 h. The supernatant was replaced with 200 μL of new media and 10 μL of MTT stock solution (5 mg/mL) was added to each well. After incubation for 1 hr the media were removed, 200 μL of DMSO was added to each well and the plates were shaken lightly for 1 hr prior to reading the absorbance at 550 nm. The percentage loss of cell viability was calculated for each well relative to vehicle (0.5% DMSO) treatment. Consequently an apparent increase in cell viability for drug treatment relative to vehicle is tabulated as a negative percentage.
Background: Formazan colour is commonly taken as a measure of viable cells.

For the next data set, the target named is cSrc enzyme (Homo sapiens (Human), UniProt P12931). Kind of data set: c-SRC enzyme inhibition assay (FRET, Z'-LYTE). It is filed as biochemical. As to conditions: read-out: Enzyme Profile: IC50 Values cSrc.
Another data set has as its system HRV16. Kind of data set: Rhinovirus-titre assay. It counts as cell-based, human rhinovirus. As to conditions: for inhibition at 0.04 µg/mL: cell not marked b, test compounds 0.04 μg/mL per method (footnote b, 0.2 μg/mL), read-out: HRV titre (inhibitory %): % inhibition observed vs. HRV16 infection control. The protocol: MRC5 cells (human lung fibroblast, ATCC) were infected with 1 MOI (multiplicity of infection of 1.0) of HRV16 and incubated for 1 hr at 33° C. with gentle shaking to stimulate adsorption. The cells were then washed with PBS, fresh media was added and the cells were incubated for a further 96 hr. The supernatant was collected and 10-fold serial dilutions of virus containing supernatant were prepared. All titrations were performed by infecting confluent Hela cell monolayers with serially diluted supernatant (10^−1-10^−5) and assessing the cytopathic effect by visual inspection 4 days after infection. The amount of virus required to infect 50% of Hela cells was calculated in each treatment as TCID50. Test compounds (0.04 μg/mL) were added 2 hr before HRV infection and 1 hr after infection when non-infected HRV was washed out. The anti-HRV activity of each test compound was determined as the difference of the log TCID50 of HRV16 in the presence of the compound with the log TCID50 of HRV16 in the absence of compound. […]

The target of the next data set is p38 MAPK γ (MAPK12) (Homo sapiens (Human), UniProt P53778). Kind of data set: Enzyme inhibition assay (FRET, Z-LYTE), p38 MAPK gamma. It counts as biochemical. The note with it: read-out: Enzyme Profile: IC50 Values p38γ. The protocol:
as §2

For data set [3], the system named is TNFα release in d-U937 cells. Kind of data set: LPS-induced TNFα release in d-U937 cells. It is filed as cell-based. As to conditions: Homo sapiens, dU937, LPS 0.1 μg/mL, 4 hr, relative to 10 μg/mL BIRB796, read-out: d-U937 (LPS) TNFα REC50. On the procedure:
as §1

The next data set deals with HCK enzyme (Homo sapiens (Human), UniProt P08631). Kind of data set: HCK enzyme inhibition assay (FRET, Z'-LYTE). As to conditions: read-out: Enzyme Profile: IC50 Values HCK. It counts as biochemical.
For data set [4], the system named is TNFα release in THP-1 cells. Kind of data set: LPS-induced TNFα release in THP-1 cells. It is filed as cell-based. As to conditions: Homo sapiens, read-out: THP1 (LPS) TNFα IC50. On the procedure:
The inhibition of TNFα production was calculated at each concentration by comparison with vehicle control.

Data set [5] concerns ICAM-1 expression in BEAS2B cells. Put plainly: Poly I:C-induced ICAM-1 induction in BEAS2B cells. It counts as cell-based. As to conditions: Homo sapiens, BEAS-2B, read-out: BEAS2B (polyIC) ICAM1 IC50. On the procedure: Poly I:C (1 μg/mL) (Invivogene Ltd., San Diego, Calif.) was transfected into BEAS2B cells (human bronchial epithelial cells, ATCC) with Oligofectamine (Invitrogen, Carlsbad, Calif.). Cells were pre-incubated with final concentrations of test compounds for 2 hr and the level of ICAM1 expression on the cell surface was determined by cell-based ELISA. […] The cells were washed with PBS-Tween and incubated with the secondary antibody (HRP-conjugated anti-rabbit IgG, Dako Ltd., Glostrup, Denmark).

Where [6] appears, read: dU937, d-U937 cells, LPS 0.1 μg/mL, 4 hr.
The mark [7] stands for this setting: BEAS2B cells, poly I:C 1 μg/mL, 18 hr.

Each structure is given as a SMILES string. pEC50, pIC50: −log10 of the molar value. Read-outs that look alike come from different tables or passages of the source.

Regarding `Cc1ccc(-n2nc(C(C)(C)C)cc2NC(=O)Nc2ccc(Oc3ccnc4[nH]c(=O)[nH]c34)c3ccccc23)cc1` [Example 1, 1-(3-tert-butyl-1-p-tolyl-1H-pyrazol-5-yl)-3-(4-(2-oxo-2,3-dihydro-1H-imidazo [4,5-b]pyridin-7-yloxy)naphthalen-1-yl) urea], the negative-log IC50 (pIC50) in data set [1] (setting [6]) was 7.72; at p38 MAPK alpha (MAPK14), 7.77; at cSrc enzyme, 8.15; at p38 MAPK γ (MAPK12) it was 7.13; on HCK enzyme it was greater than 8.70; in data set [4] (THP-1 cells, LPS 3 μg/mL, 4 hr), 8.80. Besides, in data set [5] (setting [7]), the pIC50 was 8.57. Besides, in data set [2] (1 μg/ml), the “d-U937 MTT Assay 4 h” value is “− (− and + indicate the result is below and above the no significant effect threshold, respectively (<30% inhibition at a concentration of 1 μg/ml))”. Moreover, in data set [2] (1 μg/ml), the “d-U937 MTT Assay 24 h” value is “− (− and + indicate the result is below and above the no significant effect threshold, respectively (<30% inhibition at a concentration of 1 μg/ml))”. The inhibition at 0.04 µg/mL in the data set with HRV16 (Human rhinovirus sp., HRV16) worked out at 94%. Besides, the “NBEC (HRV) HRV titre Relative anti-viral activity” value with HRV16 (at 0.04 μg/mL vs. pleconaril at 0.1 μg/mL, HRV16) is 0.1. Also, in data set [3], the pEC50 is 9.70.
Take `Cc1ccc(-n2nc(C(C)(C)C)cc2NC(=O)Nc2ccc(Oc3ccnc4[nH]c(=O)cnc34)c3ccccc23)cc1` [Example 6]: the pIC50 in [1] (setting [6]) was 8.28; on cSrc enzyme, 8.05; at p38 MAPK γ (MAPK12) it was 7.14; in data set [4] (THP-1 cells, LPS 3 μg/mL, 4 hr), 9.15; in [5] (setting [7]), 7.96. The “d-U937 MTT Assay 4 h” value in [2] (1 μg/ml) was “− (− and + indicate the result is below and above the no significant effect threshold, respectively (<30% inhibition at a concentration of 1 μg/ml))”. Also, the “d-U937 MTT Assay 24 h” value in [2] (1 μg/ml) was “− (− and + indicate the result is below and above the no significant effect threshold, respectively (<30% inhibition at a concentration of 1 μg/ml))”. Moreover, the inhibition at 0.04 µg/mL in the data set with HRV16 (Human rhinovirus sp., HRV16) worked out at 80%. Further, the pEC50 in data set [3] is 8.96.
Turning to `COc1ccc(-n2nc(C(C)(C)C)cc2NC(=O)Nc2ccc(Oc3ccnc4[nH]c(=O)n(C)c34)c(Cl)c2Cl)cc1` [Example 13, 1-(3-(tert-Butyl)-1-(4-methoxyphenyl)-1H-pyrazol-5-yl)-3-(2,3-dichloro-4-((1-methyl-2-oxo-2,3-dihydro-1H-imidazo[4,5-b]pyridin-7-yl)oxy)phenyl)urea], the pIC50 in [1] (setting [6]) is 8.34; at p38 MAPK alpha (MAPK14) it was 8.15; on cSrc enzyme it was 8.30; on p38 MAPK γ (MAPK12) it was 7.64; at HCK enzyme, 8.40; in data set [4] (THP-1 cells, LPS 3 μg/mL, 4 hr), 9.22. Besides, in data set [5] (setting [7]), the pIC50 is 8.21. Further, the “d-U937 MTT Assay 4 h” value in data set [2] (1 μg/ml) was “− (− and + indicate the result is below and above the no significant effect threshold, respectively (<30% inhibition at a concentration of 1 μg/ml))”. In [2] (1 μg/ml), the “d-U937 MTT Assay 24 h” value is “+ (− and + indicate the result is below and above the no significant effect threshold, respectively (<30% inhibition at a concentration of 1 μg/ml))”. For the same molecule, the pEC50 in [3] is 9.22.
As to `COc1ccc(-n2nc(C(C)(C)C)cc2NC(=O)Nc2ccc(OCc3ccnc4[nH]c(=O)cnc34)c3ccccc23)cc1` [Example 23], the pIC50 in [1] (setting [6]) is 7.05; on p38 MAPK alpha (MAPK14), 7.92; at cSrc enzyme, 7.46; at p38 MAPK γ (MAPK12), 6.71; on HCK enzyme it was 7.66; in [5] (setting [7]) it was 7.64. Besides, in data set [2] (1 μg/ml), the “d-U937 MTT Assay 4 h” value is “− (− and + indicate the result is below and above the no significant effect threshold, respectively (<30% inhibition at a concentration of 1 μg/ml))”. Besides, in [2] (1 μg/ml), the “d-U937 MTT Assay 24 h” value is “− (− and + indicate the result is below and above the no significant effect threshold, respectively (<30% inhibition at a concentration of 1 μg/ml))”. In data set [3], the pEC50 was 7.52.
`CNS(=O)(=O)Cc1ccc(-n2nc(C(C)(C)C)cc2NC(=O)Nc2ccc(Oc3ccnc4[nH]c(=O)cnc34)c3ccccc23)cc1` [Example 26, 1-(4-(3-(tert-butyl)-5-(3-(4-((3-oxo-3,4-dihydropyrido[2,3-b]pyrazin-8-yl)oxy)naphthalen-1-yl)ureido)-1H-pyrazol-1-yl)phenyl)-N-methylmethanesulfonamide]: the pIC50 in [1] (setting [6]) was 8.80; at p38 MAPK alpha (MAPK14), 8.15; at cSrc enzyme, 7.89; on p38 MAPK γ (MAPK12) it was 7.54; at HCK enzyme, 8.52; in data set [4] (THP-1 cells, LPS 3 μg/mL, 4 hr), 7.12. Also, in data set [5] (setting [7]), the pIC50 is 6.68. For the same molecule, in [2] (1 μg/ml), the “d-U937 MTT Assay 4 h” value was “− (− and + indicate the result is below and above the no significant effect threshold, respectively (<30% inhibition at a concentration of 1 μg/ml))”. Further, in data set [2] (1 μg/ml), the “d-U937 MTT Assay 24 h” value is “− (− and + indicate the result is below and above the no significant effect threshold, respectively (<30% inhibition at a concentration of 1 μg/ml))”. Further, the pEC50 in [3] was 8.72.
`COCC(=O)Nc1cc(COc2ccc(NC(=O)Nc3cc(C(C)(C)C)nn3-c3ccc(C)cc3)c3ccccc23)ccn1` [Ref. 1, N-(4-((4-(3-(3-tert-butyl-1-p-tolyl-1H-pyrazol-5-yl)ureido)naphthalen-1-yloxy)methyl)pyridin-2-yl)-2-methoxyacetamide, reference compound]: the pIC50 in data set [1] (dU937, 4 h) is 7.04; in data set [4] (THP-1, 4 h) it was 8.64; in data set [5] (18 h), 6.21. In addition, the “d-U937 MTT Assay 4 h” value in data set [2] (performed at 10 μg/mL) was “− ^d (− and + indicate the result is below and above the no significant effect threshold, respectively (<30% inhibition at a concentration of 1 μg/ml))”. The “d-U937 MTT Assay 24 h” value in [2] (performed at 10 μg/mL) is “− ^d (− and + indicate the result is below and above the no significant effect threshold, respectively (<30% inhibition at a concentration of 1 μg/ml))”. In addition, the inhibition at 0.2 µg/mL in the data set on HRV16 (Human rhinovirus sp., HRV16, read-out: HRV titre (inhibitory %): % inhibition observed vs. HRV16 infection control) is 96%. Also, the pEC50 in [3] was 9.05.
